Measurements reported in publication PMC11597446, “Using the Cocrystal Approach as a Promising Drug Delivery System to Enhance the Dissolution and Bioavailability of Formononetin Using an Imidazole Coformer” (Pharmaceuticals, 2024).
“Also recorded” adds a separate entry of the source. Where two headings read alike, the source gives them in different places.

Key:
[1] = Rat oral pharmacokinetics; type: in vivo, Male Sprague-Dawley rats; conditions: rats, oral 20 mg FMN/kg
Experimental: The study was carried out in rats at a 20 mg FMN/kg dose. The plasma concentration profiles and the PK parameters are presented in Figure 9 and Table 4, respectively.
The experiments were carried out in accordance with the Guidelines for Animal Experimentation of Nonclinical Center, Chaon Co. Ltd. (Yongin, Republic of Korea) and approved by the Animal Ethics Committee of the institution (CE23665) on 13 February 2024. Male Sprague−Dawley rats (230−300 g, 8 weeks) were obtained from Dae Han Bio Link Co., Ltd. (Eumseong-gun, Republic of Korea). All rats had free access to food and water in a controlled environment for one week. […] After stirring for 5 min at 37 °C, an appropriate volume (about 200 μL) of suspension was delivered via oral gavage at a dosage of 20 mg/kg body weight. Approximately 300 μL blood samples were obtained from tail veins and placed into tubes pretreated with sodium citrate before and after 0.25, 0.5, 1, 2, 4, 8, and 24 h of dosing. Blood samples were immediately centrifuged at 5000 rpm for 10 min. All the plasma samples were stored at −80 °C until analysis. FMN from plasma samples were prepared for analysis by liquid–liquid extraction using methyl tert-butyl ether according to the following steps: 60 µL internal standard (IS) solution (10 ng/mL in 50% methanol) was added to 70 µL plasma sample and […] was placed in a 15 mL tube. The sample solution was vortexed for 10 min followed by centrifugation for 5 min at 4000 rpm. The upper organic layer was transferred to a clean test tube and evaporated on a heating block at 50 °C under nitrogen. The residue was dissolved in the 50% acetonitrile (900 µL, in 0.1% formic acid) and mixed on a vortex mixer for 30 s. Resulting sample solution was transferred to auto-sampler vials, and 5 µL aliquot was injected into the LC/MS/MS system for analysis of FMN by a validated method as described below.
The pharmacokinetic data were analyzed by Winnlene (China Pharmaceutical University, Nanjing, China), using the noncompartmental method to calculate the peak plasma concentration (Cmax), the time to reach Cmax (Tmax), and the area under the plasma concentration−time curve (AUC).
FMN quantitative analysis was carried out using Agilent 1200 system (Agilent, Waldbronn, Germany) with triple quadrupole mass spectrometry API5000 (ABSciex, Vaughan, ON, Canada) operated in negative electrospray ionization using MRM mode. A Luna C8(2) column (2.1 mm I.D., 100 mm length, 5 μm; Phenomenex, Torrance, CA, USA) was maintained at 40 °C. Gradient elution was carried out at a flow rate of 0.3 mL/min using mobile phase A (distilled water) and mobile phase B (acetonitrile). The gradient applied was as follows: from 0 to 2.5 min, 50% B; from 2.6 to 7.0 min, 95% B; and from 7.1 to 11.5 min, 50% B. Sample volumes of 5 μL were injected. The fragmentation transitions were m/z 267.1 → 252.0 for FMN and m/z 197.0 → 92.0 for […], respectively. Optimized instrument settings specific for FMN and IS were as follows: curtain gas, 20 psi; ion source gas 1, 50 psi; ion source gas 2, 50 psi; ion spray voltage, −4500 V; turbo heater temperature, 650 °C. The precursor ions of FMN and IS were formed using declustering potentials of −90 and −40 V, respectively, and their precursor ions were fragmented at collision energies of −28 and −42 eV by collision-activated dissociation with nitrogen at a pressure setting of 5 (arbitrary units). Both quadrupoles were maintained at unit resolution. The ratio of the standard to IS peak area was used for calibration by linear regression analysis.

[2] = Powder dissolution experiment in bio-relevant media (FaSSGF, FaSSIF); conditions: 37 °C
Experimental: Bio-relevant media, FaSSGF and FaSSIF, were used for powder dissolution tests to mimic in vivo environments.
Powder samples were sieved through a 300 µm sieve. FaSSGF and FaSSIF were prepared according to the literature, except pepsin was not included in FaSSGF [41]. Samples equivalent to 5 mg of FMN were added to 20 mL glass vials containing 10 mL of FaSSGF or FaSSIF. Sample vials were placed in a shaking incubator (SIF-6000R, Jeio Tech, Daejeon, Republic of Korea) at 37 °C. Aliquots (1 mL) were collected at designated time points and filtered through a 0.45 µm PVDF filter and diluted with the HPLC mobile phase for HPLC analysis. Additional test for cocrystal was carried out in the presence of PVP K30 (2.5 mg/mL) in FaSSGF or FaSSIF.
FMN quantitative analysis was carried out using a Shimadzu system (Japan) equipped with a C8 column (5 μm, 4.6 mm I.D., and 150 mm length, Waters, Milford, MA, USA) at room temperature. The mobile phase was composed of methanol/water (60:40, v/v). Samples were injected in a volume of 10 μL with a total flow rate set at 1.0 mL/min. Detection was carried out at a UV wavelength of 254 nm. The area of the standard was used for calibration by linear regression analysis.

[3] = Physical stability test (PXRD after storage); type: physicochemical
Experimental: Powder samples in closed glass vials were stored at 4 and 40 °C. They were then analyzed by PXRD for crystallization at given time points. PXRD measurement conditions were the same as described above.

[4] = plasma FMN, suspension in 1% PVP-K30, n = 4

AUC(0-inf) ([1]; male, Sprague-Dawley, rat, 20 mg/kg, plasma FMN, crystalline FMN suspension in 1% PVP-K30, n = 4) [ng·h/mL] | AUC(0-t) ([1]; male, Sprague-Dawley, rat, 20 mg/kg, plasma FMN, crystalline FMN suspension in 1% PVP-K30, n = 4, mean ± SD) [ng·h/mL] | Cmax ([1]; male, Sprague-Dawley, rat, 20 mg/kg, plasma FMN, crystalline FMN suspension in 1% PVP-K30, n = 4, read-out: Cmax) [ng/mL] | half-life ([1]; male, Sprague-Dawley, rat, 20 mg/kg, plasma FMN, suspension in 1% PVP-K30, n = 4) [h] | Tmax ([1]; male, Sprague-Dawley, rat, 20 mg/kg, plasma FMN, suspension in 1% PVP-K30, n = 4, read-out: Tmax) [h] | physical stability (PXRD) after storage ([3]; six months at 4 and 40 °C, closed glass vials) | AUCinf [1, 4] [ng·h/mL] | Cmax [1, 4] [ng/mL] | T1/2 [1, 4] [h] | Tmax [1, 4] [h] | AUCt ([1]; plasma FMN, suspension in 1% PVP-K30, n = 4, mean ± SD) [ng·h/mL] | increase in AUC compared to crystalline FMN [1] [fold] | increase in Cmax compared to crystalline FMN [1] [fold] | Compound | dissolution rate and concentration at 6 h compared with crystalline FMN [2] | physical stability (PXRD) after storage ([3]; six months at 40 °C)
16.4 ± 1.51 | 10.4 ± 3.19 | 1.81 ± 0.73 | 7.1 ± 3.35 | 5 ± 2 |  |  |  |  |  |  |  |  | COc1ccc(-c2coc3cc(O)ccc3c2=O)cc1 [FMN, Formononetin] |  | 
 |  |  |  |  | remained the same for six months | 44.52 ± 19.11 | 8.93 ± 6.66 | 5.60 ± 2.19 | 0.44 ± 0.38 | 37.38 ± 20.97 | 3.58 | 4.93 | formononetin-imidazole [FMN-IMD cocrystal] | faster dissolution rate and higher concentration at the 6-h time point | no changes in the PXRD; also recorded: stable for six months
